According to paper PMC12910498 (ACS pharmacology & translational science, 2026):
Where two headings read alike, the source gives them in different places. Values belong to the compound of their own block, whether it stands above or below them.

How the values were obtained:
[1] = target: human D3R (Homo sapiens, UniProt P35462); assay: DiscoverX PathHunter β-arrestin recruitment assay, D3R; conditions: for Emax: read-out: D3R Emax (%)
[2] = target: T1, D5 (Homo sapiens, UniProt P21918); assay: PDSP primary screen, D5; type: binding; conditions: 10 µM compound
T1 construct: Psychoactive Drug Screening Program (PDSP)
T1 sequence (P21918 whole entry): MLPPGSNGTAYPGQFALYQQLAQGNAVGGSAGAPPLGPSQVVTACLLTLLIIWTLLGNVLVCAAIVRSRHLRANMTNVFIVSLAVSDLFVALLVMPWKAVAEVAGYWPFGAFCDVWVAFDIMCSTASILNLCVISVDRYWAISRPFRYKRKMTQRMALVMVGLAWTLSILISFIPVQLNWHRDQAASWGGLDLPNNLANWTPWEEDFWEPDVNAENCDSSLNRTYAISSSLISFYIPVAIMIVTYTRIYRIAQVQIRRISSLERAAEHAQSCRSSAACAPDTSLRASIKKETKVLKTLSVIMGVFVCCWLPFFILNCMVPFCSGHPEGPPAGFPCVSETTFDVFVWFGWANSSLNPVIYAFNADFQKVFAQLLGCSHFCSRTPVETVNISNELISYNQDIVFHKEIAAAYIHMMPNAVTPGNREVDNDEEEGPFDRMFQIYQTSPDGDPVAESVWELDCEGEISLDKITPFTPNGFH
Text: (§1) Receptor Primary Secondary Primary Secondary Primary Secondary Primary Secondary screen assay screen assay screen assay screen assay […]
(§2) inhibition in primary assessment.

[3] = target: T2, human D4R (Homo sapiens, UniProt P21917); assay: DiscoverX PathHunter β-arrestin recruitment assay, D4R; conditions: for D4R average activity at the highest tested dose: at 100 μM (Emax ND); for D4R Ant. (%): antagonist mode, EC80 dopamine (1 μM), normalized to spiperone
T2 sequence (P21917 1-419): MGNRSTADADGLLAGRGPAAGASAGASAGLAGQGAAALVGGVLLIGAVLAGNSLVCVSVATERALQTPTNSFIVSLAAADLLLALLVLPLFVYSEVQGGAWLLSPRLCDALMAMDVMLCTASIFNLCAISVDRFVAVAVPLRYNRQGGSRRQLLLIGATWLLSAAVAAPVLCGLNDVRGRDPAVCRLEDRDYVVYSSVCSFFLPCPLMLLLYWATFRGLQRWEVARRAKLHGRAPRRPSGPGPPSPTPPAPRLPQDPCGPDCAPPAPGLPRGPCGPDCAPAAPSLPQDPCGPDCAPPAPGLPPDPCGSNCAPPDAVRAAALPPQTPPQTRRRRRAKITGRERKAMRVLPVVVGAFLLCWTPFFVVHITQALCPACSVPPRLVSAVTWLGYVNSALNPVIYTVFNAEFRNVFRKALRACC

[4] = target: T3, D1 (Homo sapiens, UniProt P21728); assay: PDSP primary screen and secondary assay, D1; type: binding; conditions: 10 µM compound
T3 construct: Psychoactive Drug Screening Program (PDSP)
T3 sequence (P21728 whole entry): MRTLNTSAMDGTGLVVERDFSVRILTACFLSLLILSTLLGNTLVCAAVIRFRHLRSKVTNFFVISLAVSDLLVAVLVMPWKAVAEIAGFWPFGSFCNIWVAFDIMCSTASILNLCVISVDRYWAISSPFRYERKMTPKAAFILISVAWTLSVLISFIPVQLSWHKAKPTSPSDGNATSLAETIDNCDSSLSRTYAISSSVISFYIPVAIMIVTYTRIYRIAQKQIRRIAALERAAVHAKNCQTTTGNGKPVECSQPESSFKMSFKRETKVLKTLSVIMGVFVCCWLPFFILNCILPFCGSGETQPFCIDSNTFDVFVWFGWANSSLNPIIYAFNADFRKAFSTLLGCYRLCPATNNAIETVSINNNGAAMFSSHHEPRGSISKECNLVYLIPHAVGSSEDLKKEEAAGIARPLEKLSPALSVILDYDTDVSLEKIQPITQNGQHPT
Text: as §1, §2

[5] = Phase I metabolic stability in rat liver microsomes (with NADPH); type: in vitro ADME; conditions: pH 7.4, presence of NADPH, mean ± SD, n = 3
Method: (§3) We evaluated the Phase I metabolic stability of compounds 2−7 and 14−19 using rat and human liver microsomes, as previously described.[45]
(§4) Phase I metabolic stability assays were conducted using rat and human liver microsomes as previously described[45],[70] with minor modifications. In brief, the reactions were carried out with 100 mM potassium phosphate buffer, pH 7.4, in the presence of NADPH regenerating system (1.3 mM NADPH, 3.3 mM glucose 6-phosphate, 3.3 mM MgCl2, 0.4 U/mL glucose-6-phosphate dehydrogenase, 50 μM sodium citrate). Negative controls without cofactors were assessed to determine the non-CYP-mediated metabolism. Compound disappearance was monitored over time using a liquid chromatography and tandem mass spectrometry (LC/MS) method. All reactions were performed in triplicate.
(§5) Chromatographic analysis was performed on a Dionex ultra high-performance LC system coupled with Q Exactive Focus orbitrap mass spectrometer (Thermo Fisher Scientific Inc., Waltham MA). Separation was achieved using Agilent Eclipse Plus column (100 × 2.1 mm^2 i.d.; maintained at 35 °C) packed with a 1.8 μm C18 stationary phase. […] The total run time for each analyte was 6.5 min. Pumps were operated at a flow rate of 0.3 mL/min. The mass spectrometer controlled by Xcalibur software 4.0.27.13 (Thermo Scientific) was operated with a HESI ion source in positive ionization mode. Compounds were identified in the full-scan mode (from m/z 50 to 750) by comparing t = 0 samples with t = 30 min and t = 60 min samples.

[6] = target: T2, human D4R; conditions: for D4R Ant. (%): cAMP, antagonist mode, 10 μM forskolin and 10 nM dopamine, normalized to spiperone; for Emax: read-out: D4R Emax (%)
[7] = Pharmacokinetics study in rats (plasma and brain); type: in vivo, Sprague−Dawley rats; conditions: rat, 5 mg/kg IP
Method: Given their adequate in vitro stability profiles, we next evaluated the in vivo pharmacokinetic profiles of 14, 15, 17, and 18 in rats. Sprague−Dawley rats were dosed with 5 mg/kg (14, 15, 17) or 10 mg/kg (18), i.p., and plasma and brain levels of each drug were measured 0−6 h postdose.
All animal experiments were performed following the protocols evaluated and approved by the Animal Care and Use Committee at Johns Hopkins University (Ethics Approval Number: RA24M403). Pharmacokinetic studies in Sprague−Dawley (SD) rats were conducted according to protocols approved. SD rats obtained from Harlan were maintained on a 12 h light−dark cycle with ad libitum access to food and water. Test compound was administered via i.p. injection at a dose of 10 mg/kg (100% saline vehicle, 10 mL/kg volume). The rats were sacrificed at specified time points (0.25, 0.5 h, 1, 2, 4, and 6 h) post drug administration. For the collection of plasma and brain tissue, animals were euthanized with CO2, and blood samples were collected in heparinized microtubes by cardiac puncture. Brains were dissected and immediately flash-frozen (−80 °C). Blood samples were spun at 2000g for 15 min, and plasma was removed and stored at −80 °C until analysis (as described below).
Quantitation of triazole analogs 14, 15, 17, and 18 was performed using liquid chromatography with tandem mass spectrometry (LC/MS-MS) methods. Briefly, calibration standards were prepared using respective tissue (naïve plasma and brain) with additions of the test compounds. For quantifying the test compounds in the pharmacokinetic samples, plasma samples (20 μL) were processed using a single liquid extraction method by addition of 100 μL of acetonitrile containing internal standard (losartan: 0.5 μM), followed by vortex-mixing for 30 s and then centrifugation at 10,000g for 10 min at 4 °C. Brain tissues were diluted 1:5 w/v with acetonitrile containing losartan (0.5 μm) and homogenized, followed by vortex-mixing and centrifugation at 10,000g for 10 min at 4 °C. A 50 μL aliquot of the supernatant was diluted with 50 μL of water and transferred to 250 μL polypropylene autosampler vials sealed with Teflon caps. Two μL of the sample was injected into the LC/MS/MS system for analysis. Chromatographic analysis was performed using an Accela ultra high-performance system consisting of an analytical pump and an autosampler coupled with a TSQ Vantage mass spectrometer. […] The mobile phase consisted of 0.1% formic acid in acetonitrile and 0.1% formic acid in water with gradient elution, starting with 10% organic phase (from 0 to 1 min) linearly increasing to 95% (from 1 to 2 min), and re-equilibrating to 10% by 3 min. The total run time for each analyte was 3.5 min. Pumps were operated at a flow rate of 0.4 mL/min. […] Plasma concentrations (nmol/mL) as well as brain tissue concentrations (nmol/g) were determined and plots of mean plasma concentration versus time were constructed. Noncompartmental analysis modules in Phoenix WinNonlin version 7.0 (Certara USA, Inc., Princeton, NJ) were used to quantify exposures (AUC0−t) and half-life (t1/2).

[8] = target: human D2R long isoform (Homo sapiens, UniProt P14416); assay: DiscoverX PathHunter β-arrestin recruitment assay, D2R; conditions: for Emax: read-out: D2R Emax (%)
Sequence of human D2R long isoform (P14416 whole entry, canonical isoform): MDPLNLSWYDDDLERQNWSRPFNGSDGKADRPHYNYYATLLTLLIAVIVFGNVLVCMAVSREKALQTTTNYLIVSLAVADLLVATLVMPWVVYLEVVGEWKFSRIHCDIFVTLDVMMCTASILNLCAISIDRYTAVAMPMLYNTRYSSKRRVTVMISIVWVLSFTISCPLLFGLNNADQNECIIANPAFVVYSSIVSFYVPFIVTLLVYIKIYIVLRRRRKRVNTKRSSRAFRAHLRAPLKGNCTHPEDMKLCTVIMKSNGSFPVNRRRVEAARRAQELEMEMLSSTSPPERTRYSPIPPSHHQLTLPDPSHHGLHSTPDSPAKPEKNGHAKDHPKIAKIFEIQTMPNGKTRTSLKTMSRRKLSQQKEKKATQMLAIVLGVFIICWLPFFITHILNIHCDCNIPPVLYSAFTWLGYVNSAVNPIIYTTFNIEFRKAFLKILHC

[9] = Phase I metabolic stability in human liver microsomes (with NADPH); type: in vitro ADME; conditions: pH 7.4, presence of NADPH, mean ± SD, n = 3
Method: as §3, §4, §5

[10] = antagonist mode, EC80 dopamine (1 μM), normalized to spiperone

Sequence of human D3R (P35462 whole entry): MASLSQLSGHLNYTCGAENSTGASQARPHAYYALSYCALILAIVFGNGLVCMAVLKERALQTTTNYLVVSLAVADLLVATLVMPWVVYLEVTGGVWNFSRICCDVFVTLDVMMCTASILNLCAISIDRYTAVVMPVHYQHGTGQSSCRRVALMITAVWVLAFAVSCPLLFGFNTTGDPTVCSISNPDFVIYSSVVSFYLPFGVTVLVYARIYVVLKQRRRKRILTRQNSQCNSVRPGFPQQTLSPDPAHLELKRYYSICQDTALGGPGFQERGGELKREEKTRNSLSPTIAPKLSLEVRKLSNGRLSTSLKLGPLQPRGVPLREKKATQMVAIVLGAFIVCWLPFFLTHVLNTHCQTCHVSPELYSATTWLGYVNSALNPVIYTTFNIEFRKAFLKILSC

SMILES: Cc1cccc(-n2cc(CN3CCN(c4ccccn4)CC3)nn2)c1 [Compound 15, 1-(Pyridin-2-yl)-4-((1-(m-tolyl)-1H-1,2,3-triazol-4-yl)-methyl)-piperazine]
- EC50 [1]: 3.6 ± 0.48 µM
- Emax [1]: 110 ± 29%
- inhibition at 10 µM [2]: 1.76%
- EC50 [3]: > 100 µM
- IC50 [3]: 0.31 ± 0.049 µM
- D4R average activity at the highest tested dose ([3]; agonist mode): ND (14% at 100 μM)
- D4R Ant. (%) [3]: 82.8 ± 3.3%
- inhibition at 10 µM [4]: 2.16%
- half-life [5]: 32.9 ± 1.16 min
- EC50 [6]: 0.00529 ± 0.00139 µM
- IC50 [6]: 0.0576 ± 0.00544 µM
- D4R Ant. (%) [6]: 40 ± 1%
- Emax [6]: 43 ± 6%
- Kp ([7]; Sprague-Dawley, brain and plasma, ip, 5 mg/kg, AUC brain/plasma, read-out: brain: Plasma ratio): 0.72
- half-life ([7]; Sprague-Dawley, brain, ip, 5 mg/kg, brain, read-out: half-life (h) brain (converted)): 1.02 h
- half-life ([7]; Sprague-Dawley, plasma and brain, ip, 5 mg/kg, tissue not specified, read-out: half-life (converted)): > 1.1 h
- half-life ([7]; Sprague-Dawley, plasma, ip, 5 mg/kg, plasma, read-out: half-life (h) plasma (converted)): 1.09 h
- Tmax ([7]; Sprague-Dawley, brain, read-out: Tmax (h) brain): 0.25 h
- AUC ([7]; Sprague-Dawley, plasma): 2.65 ± 0.46 µM·h
- Cmax ([7]; Sprague-Dawley, plasma): 3.28 ± 1.26 µM
- Tmax ([7]; Sprague-Dawley, plasma, read-out: Tmax (h) plasma): 0.25 h
- AUC brain ([7]; brain): 1.91 ± 0.31 nmol·h/g
- Cmax brain ([7]; brain): 1.83 ± 0.68 nmol/g
- peak in vivo brain concentrations expected ([7]; from brain Cmax): greater than 1.8 μM
- EC50 [8]: > 100 µM
- IC50 [8]: 9.05 ± 2.5 µM
- D2R Ant (%) [8, 10]: 87.7 ± 2.6%
- Emax [8]: 16.5 ± 9.8%
- half-life [9]: 61.4 ± 7.27 min

SMILES: Cc1cccc(-n2cc(CN3CCN(c4ncccn4)CC3)nn2)c1 [Compound 16, 2-(4-((1-(m-Tolyl)-1H-1,2,3-triazol-4-yl)methyl)-piperazin-1-yl)pyrimidine]
- EC50 [1]: > 100 µM
- IC50 [1]: > 10 µM
- D3R Ant. (%) [1, 10]: 105 ± 4%
- Emax [1]: 75 ± 14%
- EC50 [3]: > 100 µM
- IC50 [3]: 0.14 ± 0.035 µM
- D4R average activity at the highest tested dose ([3]; agonist mode): ND (14% at 100 μM)
- D4R Emax (%) ([3]; agonist mode, in comparison to dopamine): did not show partial agonist activity
- D4R Ant. (%) [3]: 85.2 ± 2.4%
- half-life [5]: 68.1 ± 9.51 min
- EC50 [6]: 0.00768 ± 0.00188 µM
- IC50 [6]: 0.0679 ± 0.0113 µM
- D4R Ant. (%) [6]: 45 ± 3%
- Emax [6]: 39 ± 7%
- EC50 [8]: 6.87 ± 2.5 µM
- IC50 [8]: 19 µM
- D2R Ant (%) [8, 10]: 73.2 ± 4.6%
- Emax [8]: 25.3 ± 4.9%
- half-life [9]: 40.1 ± 1.91 min

- half-life [5]: 28 ± 0.56 min
- half-life [9]: 37.5 ± 0.68 min
SMILES: CCc1cccc(-n2cc(CN3CCN(c4ccccn4)CC3)nn2)c1 [Compound 19, 1-((1-(3-Ethylphenyl)-1H-1,2,3-triazol-4-yl)methyl)-4-(pyridin-2-yl)piperazine]

SMILES: O=C(CCCN1CCC2(CC1)C(=O)NCN2c1ccccc1)c1ccc(F)cc1 [Spiperone, reference compound]
- D4R Ant. (%) [3]: 100 ± 0%
- D4R Ant. (%) [6]: 100 ± 0%
- D2R Ant (%) [8]: 100 ± 0%
